We go through two substances from patent publication US7098195B2, “Fluorinated glucosamine analogs useful for modulating post-translational glycosylations on cells” (Health Research, Inc., priority 2001, dated 2006).

Test [1] concerns E-selectin ligand activity of CLA+ T-lymphocytes. The test can be described thus: Parallel-plate flow chamber, CLA+ T-cell tethering and rolling on E-selectin chimera. Format: cell-based, human. Conditions: 0.1% for 1 h at 37° C. The procedure:
(§1) To analyze the affects of 4-F-GlcNAc on the function of CLA on human T-cells, we examined the ability of 4-F-GlcNAc-treated (0.05, 0.1, 0.5 mM for 30 hrs) CLA-+ T-cells cultures to engage with immobilized E- and P-selectin chimera in the parallel-plate flow chamber. As described for flow cytometric analyses (Example 13), cells were first pretreated with neuraminidase to remove terminal sialic acid residues required for HECA-452 reactivity and for E- and P-selectin ligand activity of CLA. This approach allowed for the assessment on de novo synthesized CLA molecules.
(§2) Tethering and rolling of human T-cells on recombinant human E- and P-selectin-Ig chimera (provided by Dr. Robert Fuhlbrigge, Harvard Medical School) and human L-selectin-Ig (gift from Dr. Ray Camphausen, Wyeth/Genetics Institute, Inc., Cambridge, Mass.) were analyzed in the parallel-plate flow chamber under physiologic shear stress conditions (3). To prepare E- and P-selectin-Ig chimera spots, protein A (300 μg/15 μl 0.1M NaHCO3) was adsorbed to Ten-twenty-nine™ Petri dishes for 2 h at 37° C. Human serum albumin ([…] PBS) then added and incubated for 2 h at 37° C. to block non-specific binding sites. E-selectin-Ig (50 ng/50 μl PBS) or P-selectin-Ig (50 ng/50 μl PBS) solutions was pipetted directly over the pre-existing protein A spots for 18 h at 4° C. To prepare L-selectin-Ig spots, L-selectin-Ig (300 ng/15 μl PBS) or isotype control human IgG (300 ng/15 μl) were adsorbed directly to plastic (non-protein A-coated) for 18 h at 4° C. and blocked in 100% FBS for 2 h at 4° C.
(§3) CLA^+ T-cells or freshly isolated PBL were treated with neuraminidase and metabolic glycosylation inhibitors or with protease (bromelain) as described above, washed twice in HBSS, suspended at 2×10^6/ml in HBSS/10 mM HEPES/2 mM CaCl2 (H/H/Ca^++) and infused into the chamber over selectin chimeras. Protease treatment was performed to control for residual E-selectin activity not attributable to the expression of CLA on a protein scaffold. Cell tethering was permitted at 0.6 dynes/cm^2 for 1 min, then stepwise increments in shear stress every 15 sec were employed to a final shear stress level of 60 dynes/cm^2. The number of cells rolling/viewing field (at 100× magnification) was quantified at each level of shear stress in triplicates for a minimum of three experiments. […] Negative control experiments were performed in parallel, wherein cell binding was examined in H/H adhesion assay medium containing 5 mM EDTA as well as assaying cell binding to human IgG isotype control.
(§4) Utilizing the parallel-plate flow chamber under physiologic shear stress conditions, E-, P- and L-selectin ligand activities of human CLA^+ T-cells treated were analyzed in an identical manner as cells prepared for Western blotting and autoradiography studies.

Test [2] has as its system P-selectin ligand activity of CLA+ T-lymphocytes. The test can be described thus: Parallel-plate flow chamber, CLA+ T-cell tethering and rolling on P-selectin chimera. Format: cell-based, human. As to conditions: 0.1% for 1 h at 37° C. The procedure:
as §1, §2, §3, §4

A further test concerns HECA-452 epitopes. The test can be described thus: Flow cytometric analysis of HECA-452 epitopes on human T-lymphocytes. The format is cell-based. The procedure:
Only positive cells, which were those cells with fluorescence above background autofluorescence and fluorochrome-conjugated secondary Ab staining, were analyzed.
For analysis of CLA expression on T-cells treated with glycoconjugate modifiers, CLA^+ T-cells were first pretreated with neuraminidase (0.1 U/ml at 37° C. for 1 h) to eliminate functional CLA and cleave all HECA-452 reactive epitopes from the cell surface (35–38). Since we wanted to investigate whether these compounds directly affected CLA expression and function, neuraminidase pretreatment followed by incubations with glycosylation modifiers allowed for examination of de novo synthesized CLA/HECA-452 epitopes re-expressed on the cell surface. After neuraminidase digestion, cells were then incubated with tunicamycin (0.02 mM) (an inhibitor of GlcNAc phosphotransferase, the initial step of N-glycosylation), swainsonine (0.23 mM) (an inhibitor of α-mannosidase II and complex-type N-glycosylation), 4-F-GlcNAc (0.05 mM) (putative inhibitor of poly-N-acetyllactosamine biosynthesis), BAG (an inhibitor of O-glycan biosynthesis) (<2 mM) or GlcNAc (5 mM) (negative control, naturally-occurring metabolic counterpart of 4-F-GlcNAc)for 30 h in the presence of human recombinant IL-2. […] Concentrations for BAG were selected based on maximal O-glycosylation inhibitory effects at non-growth inhibitory concentrations as previously reported (39). To determine a suitable concentration of 4-F-GlcNAc for examining glycoconjugate-modifying effects without influencing cell growth or protein synthesis, we performed preliminary growth inhibitory experiments of cells incubated with 4-F-GlcNAc for 2 cell doublings (˜36 h) at 37° C. (cell viability assessed by Trypan-blue exclusion).
Flow cytometric analysis was performed on human leukocytes utilizing both direct and indirect immunofluorescence staining approaches. All cells utilized for these experiments were washed twice with cold PBS/2%FBS and suspended at 10^7/ml PBS/1% FBS. Primary antibodies, anti-CLA (HECA-452), -CD4, -CD8, CD43 (L60) and PSGL-1 (PL-2) along with the appropriate isotype-matched control antibodies were incubated with the cells for 30 min on ice. Following two washes with PBS/2%FBS, cells were resuspended in PBS/1%FBS and fluorochrome-conjugated secondary antibodies (2 μl) and incubated for 30 min on ice.

For test [3], the system named is L-selectin ligand activity of human CLA+ T-cells. Briefly: Parallel-plate flow chamber, CLA+ T-cell rolling on L-selectin chimera. Conditions: 0.1% for 1 h at 37° C. Format: cell-based. The procedure: as §2, §3, §4
Test [4] deals with HECA-452 epitopes on human hematopoietic KG1a cells. Briefly: Flow cytometric analysis of HECA-452 epitopes on KG1a cells. Format: cell-based. As to conditions: KG1a, neuraminidase (1 hr). The source says:
(§5) In a similar set of experiments, we analyzed the effects of 4-F-GlcNAc on selectin ligand expression and function on the human hematopoietic cell line KGla. KGla cells express a distinct HECA-452-reactive CD44 glycoform that functions as both an E- and L-selectin ligand (Dimitroff, C. J. et al. (2001) J. Cell Biol., 53: 1277–1286; Dimitroff, C. J. et al. (2000) Proc. Nat. Acad. Sci., 97(25):13841–46; Sackstein, R. and Dimitroff, C. J. (2000) Blood, 96: 2765–74.), otherwise known as HCELL, respectively. This specialized glycoform represents a major E-selectin and the primary L-selectin ligand on normal CD34+ HPCs and on leukemic cells, and, therefore, is also implicated in the BM homing aspects and growth-related activities of HPCs in vivo, respectively (Id.). We first performed flow cytometric analysis of HECA-452 antigen and CD44 on 4-F-GlcNAc-treated KGla cells. […] Only positive cells, which were those cells with fluorescence above background autofluorescence and fluorochrome-conjugated secondary Ab staining, were analyzed.
(§6) Flow cytometric analysis was performed on human leukocytes utilizing both direct and indirect immunofluorescence staining approaches. All cells utilized for these experiments were washed twice with cold PBS/2%FBS and suspended at 10^7/ml PBS/1% FBS. Primary antibodies, anti-CLA (HECA-452), -CD4, -CD8, CD43 (L60) and PSGL-1 (PL-2) along with the appropriate isotype-matched control antibodies were incubated with the cells for 30 min on ice. Following two washes with PBS/2%FBS, cells were resuspended in PBS/1%FBS and fluorochrome-conjugated secondary antibodies (2 μl) and incubated for 30 min on ice. Cells were washed twice with PBS/2%FBS, resuspended in PBS and flow cytometry was performed on a FACScan apparatus equipped with an argon laser tuned at 488 nm (Becton Dickinson).

The test system of test [5] is P-selectin ligand activity of murine Th1 cells. The test can be described thus: Flow chamber analysis of P-selectin binding on murine Th1 cells. Format: cell-based, mouse. Conditions: neuraminidase treatment alone (0.1 U/ml for 1 hr at 37° C.). The text has this: (§7) CD4+ splenocytes were isolated from C57BL-6 mice by anti-murine CD4 L3T4 magnetic bead technology (Miltenyi Biotec) according to manufacturer's protocol. […] Culturing murine T helper cells in the presence of murine IL-12 and anti-murine IL-4 produces selectin binding Th1 cells by up-regulating FucTVII (69, 70) and core 2 enzyme (43–45, 71, 72), both critical for selectin ligand synthesis (i.e. decoration of PSGL-1 (67, 68)), and prevents the production of non-selectin binding Th2 cells (67–72). Th1 cells were also generated from mice deficient in α1,3 fucosyltransferase, FucTVII, and served as negative controls (33, 38, 40). Cells were harvested and re-plated at 2×10^6cells/ml on non-Ab coated plastic with murine IL-2 (20 ng/ml) in the presence or absence of murine IL-12 (10 ng/ml) and anti-murine IL-4 moAb 11B11 (10 μg/ml) for 48 h. […] Glycosylation inhibitors were added to cultures on day 6.5 for 30 hr, after first treating cells with neuraminidase (0.1 U/ml for 1 hr at 37° C.) to remove all cell surface terminal sialic acid resides and E and P-selectin ligand activity. Since selectin ligands are dependent on terminal sialic acid (α2,3 N-acetylneuraminic acid) for activity, this approach allowed for analysis of de novo synthesized selectin ligands in the presence of 0.05 mM 4-F-GlcNAc, N-glycan inhibitors, 0.23 mM swainsonine and 0.02 mM tunicamycin, and 1 mM GlcNAc (negative control).

In test [6] the test system is CD44 on human hematopoietic KG1a cells. The test can be described thus: Flow cytometric analysis of CD44 on KG1a cells. Conditions: KG1a, neuraminidase (1 hr). Format: cell-based.
Description: as §5, §6
For orientation: In flow cytometry, cells or beads pass a laser one at a time.

For test [7], the system named is E-selectin ligand activity of murine Th1 cells. The test can be described thus: Flow chamber analysis of E-selectin binding on murine Th1 cells. The format is cell-based, mouse. Conditions: neuraminidase treatment alone (0.1 U/ml for 1 hr at 37° C.).
Description: as §7

In test [8] the test system is HCELL/CD44 activity on human hematopoietic KG1a cells. Briefly: Stamper-Woodruff adhesion assay, L-selectin-dependent lymphocyte adherence to KG1a cells. Format: cell-based. Conditions: KG1a, neuraminidase (1 hr). The text has this:
To study the effects of 4-F-GlcNAc on the function of the L-selectin binding activity of CD44 (HCELL), we employed the shear-based, Stamper-Woodruff adhesion assay to examine the ability of 4-F-GlcNAc-treated KG1a cells to support L-selectin-dependent lymphocyte adherence. This assay is utilized to specifically assess the shear-dependent binding interactions between L-selectin naturally expressed on lymphocytes and HCELL expressed on KG1a cells (Dimitroff, C. J. et al. (2000) Proc. Nat. Acad. Sci., 97(25):13841–46; Sackstein, R. and Dimitroff, C. J. (2000) Blood, 96: 2765–74.). Before treating KG1a cells with 0.05, 0.1 or 0.5 mM 4-F-GlcNAc, we first pretreated KG1a cells with Vibrio cholerae neuraminidase (0.1 U/ml for 1 hr at 37° C.) to cleave all terminal α2,3 sialic acid-bearing residues and eliminate all HCELL activity. Glutaraldehyde-fixed monolayers of KG1a cells that were first treated with Vibrio cholerae neuraminidase (0.1 U/ml for 1 hr at 37° C.) then re-cultured in the presence of 4-F-GlcNAc (0.05–0.5 mM) for 30 hr at 37° C. Metabolic inhibitors swainsonine, an inhibitor of α-mannosidase II, tunicamycin, an inhibitor of N-acetylglucosamine phosphototransferase, were also utilized to compare the relative potencies of known glycosylation inhibitors. Human peripheral blood lymphocytes (5×10^6cells/ml RPMI1640 w/o NaBicarbonate/5%FBS) were overlayed onto KG1a monolayers at 80 rpm for 30 min. at 4° C., and after gently washing in PBS, lymphocytes bound to cell monolayers were fixed in 3% glutaraldehyde. Re-expression of HCELL activity or HECA-452-reactive CD44 on KG1a cells was determined after […] of 4-F-GlcNAc treatment. Bound lymphocytes were quantified at 100× magnification from a minimum of 5 fields from 2 slides, and the mean number of lymphocytes (standard error of the mean) was calculated.

Marks after values point to notes of the source that are not given here.

In the case of bromelain, in test [1], the “remaining E-selectin ligand activity” value is < 25 % of control. Moreover, the P-selectin ligand activity entry in [2] was “completely eliminated”. Besides, in the test on HECA-452 epitopes (CLA^low T-cells or PBL after bromelain digestion), the “HECA-452 expression by flow cytometry” value was “relatively unchanged”. Further, the L-selectin ligand activity entry in test [3] was “completely eliminated”.
For the substance “neuraminidase: Vibrio cholerae neuraminidase, cleaves terminal sialic acid residues”, the “HECA-452 Mean Channel Fluorescence” value in test [4] stood at 43. The “P-selectin ligand activity of Th1 cells” value in test [5] was “decreased E and P-selectin ligand activity to baseline levels”. The “CD44 % Positive Cell Staining” value in [6] is reported as 100%. Also, the “HECA-452 Mean Channel Fluorescence” value with HECA-452 epitopes (CLA+ T-cells, neuraminidase (1 hr)) is reported as 27. Also, the “E-selectin ligand activity of Th1 cells” value in test [7] is “decreased E and P-selectin ligand activity to baseline levels”. In test [8], the “% Inhibition (lymphocyte binding)” value is 98* % and the “Mean Lymphocyte Binding” value came to 4.2.
